# Reference: patent US8067424B2, “Selective inhibitors for cyclin-dependent kinases” (Emory University, priority 2007, dated 2011)
# Where two headings read alike, the source gives them in different places.
# Key:
# [1] = system: SF-268; assay: cells; details: Homo sapiens
# [2] = system: OVCAR-4; assay: cells; details: Homo sapiens
# [3] = system: HCT-15
# [4] = system: K-562
# [5] = system: UO-31; assay: cells; details: Homo sapiens
# [6] = system: MDA-MB-468
# [7] = system: SF-295; assay: cells; details: Homo sapiens
# [8] = system: COLO 205
# [9] = system: OVCAR-5
# [10] = system: SK-MEL-28
# [11] = system: SR; details: for Mean Optical Densities / Percent Growth: SR
# [12] = system: SW-620
# [13] = system: NCI-H460; assay: cells; details: Homo sapiens
# [14] = system: KM12; assay: cells; details: Homo sapiens
# [15] = system: SN12C; details: for Mean Optical Densities / Percent Growth: SN12C
# [16] = system: HL-60(TB); details: for Mean Optical Densities / Percent Growth: HL-60(TB)
# [17] = system: MALME-3M; details: for Mean Optical Densities / Percent Growth: MALME-3M
# [18] = HCT-15, log10 concentration −4.0
# [19] = HCT-15, log10 concentration −5.0
# [20] = HCT-15, log10 concentration −6.0
# [21] = HCT-15, log10 concentration −7.0
# [22] = HCT-15, log10 concentration −8.0
# [23] = K-562, log10 concentration −4.0
# [24] = K-562, log10 concentration −5.0
# [25] = K-562, log10 concentration −6.0
# [26] = K-562, log10 concentration −7.0
# [27] = K-562, log10 concentration −8.0
# [28] = MDA-MB-468, log10 concentration −4.0
# [29] = MDA-MB-468, log10 concentration −5.0
# [30] = MDA-MB-468, log10 concentration −6.0
# [31] = MDA-MB-468, log10 concentration −7.0
# [32] = MDA-MB-468, log10 concentration −8.0
# [33] = COLO 205, log10 concentration −4.0
# [34] = COLO 205, log10 concentration −5.0
# [35] = COLO 205, log10 concentration −6.0
# [36] = COLO 205, log10 concentration −7.0
# [37] = COLO 205, log10 concentration −8.0
# [38] = OVCAR-5, log10 concentration −4.0
# [39] = OVCAR-5, log10 concentration −5.0
# [40] = OVCAR-5, log10 concentration −6.0
# [41] = OVCAR-5, log10 concentration −7.0
# [42] = OVCAR-5, log10 concentration −8.0
# [43] = SK-MEL-28, log10 concentration −4.0
# [44] = SK-MEL-28, log10 concentration −5.0
# [45] = SK-MEL-28, log10 concentration −6.0
# [46] = SK-MEL-28, log10 concentration −7.0
# [47] = SK-MEL-28, log10 concentration −8.0
# [48] = SW-620, log10 concentration −4.0
# [49] = SW-620, log10 concentration −5.0
# [50] = SW-620, log10 concentration −7.0
# [51] = SW-620, log10 concentration −8.0
structure (smiles),measurement,setting,value
"CC(C)c1cnn2c(NCc3ccccc3)cc(N[C@@H](CO)[C@H](O)CO)nc12 [ICEC0318, (3S)-3-(7-(Benzylamino)-3-isopropylpyrazolo[1,5-a]pyrimidin-5-ylamino)butane-1,2,4-triol]",GI50,[1]; SF-268,326 nM
same,CC50,"[1]; SF-268, read-out: LC50",> 100000 nM
same,GI50,[2]; OVCAR-4,343 nM
same,CC50,"[2]; OVCAR-4, read-out: LC50",> 100000 nM
same,TGI,[3]; HCT-15 (Colon Cancer),>1.00E−4
same,Mean Optical Densities,[3]; [18],0.268
same,Percent Growth,[3]; [18],2%
same,Mean Optical Densities,[3]; [19],0.286
same,Percent Growth,[3]; [19],3%
same,Mean Optical Densities,[3]; [20],0.481
same,Percent Growth,[3]; [20],21%
same,Mean Optical Densities,[3]; [21],1.262
same,Percent Growth,[3]; [21],90%
same,Mean Optical Densities,[3]; [22],1.354
same,Percent Growth,[3]; [22],98%
same,TGI,[4]; K-562 (Leukemia),>1.00E−4
same,Mean Optical Densities,[4]; [23],0.341
same,Percent Growth,[4]; [23],17%
same,Mean Optical Densities,[4]; [24],0.325
same,Percent Growth,[4]; [24],15%
same,Mean Optical Densities,[4]; [25],0.334
same,Percent Growth,[4]; [25],16%
same,Mean Optical Densities,[4]; [26],0.991
same,Percent Growth,[4]; [26],79%
same,Mean Optical Densities,[4]; [27],1.064
same,Percent Growth,[4]; [27],86%
same,GI50,[5]; UO-31,289 nM
same,CC50,"[5]; UO-31, read-out: LC50",> 100000 nM
same,GI50,"[6]; Homo sapiens, MDA-MB-468",165 nM
same,CC50,"[6]; Homo sapiens, MDA-MB-468, read-out: LC50",803 nM
same,TGI,[6]; MDA-MB-468 (Breast Cancer),3.64E−7
same,Mean Optical Densities,[6]; [28],0.121
same,Percent Growth,[6]; [28],−72%
same,Mean Optical Densities,[6]; [29],0.153
same,Percent Growth,[6]; [29],−64%
same,Mean Optical Densities,[6]; [30],0.154
same,Percent Growth,[6]; [30],−64%
same,Mean Optical Densities,[6]; [31],0.884
same,Percent Growth,[6]; [31],82%
same,Mean Optical Densities,[6]; [32],0.946
same,Percent Growth,[6]; [32],93%
same,GI50,[7]; SF-295,266 nM
same,CC50,"[7]; SF-295, read-out: LC50",> 100000 nM
same,TGI,[8]; COLO 205 (Colon Cancer),3.82E−7
same,Mean Optical Densities,[8]; [33],0.030
same,Percent Growth,[8]; [33],−77%
same,Mean Optical Densities,[8]; [34],0.050
same,Percent Growth,[8]; [34],−62%
same,Mean Optical Densities,[8]; [35],0.065
same,Percent Growth,[8]; [35],−50%
same,Mean Optical Densities,[8]; [36],0.372
same,Percent Growth,[8]; [36],70%
same,Mean Optical Densities,[8]; [37],0.499
same,Percent Growth,[8]; [37],107%
same,TGI,[9]; OVCAR-5 (Ovarian Cancer),>1.00E−4
same,Mean Optical Densities,[9]; [38],0.618
same,Percent Growth,[9]; [38],10%
same,Mean Optical Densities,[9]; [39],0.688
same,Percent Growth,[9]; [39],19%
same,Mean Optical Densities,[9]; [40],0.665
same,Percent Growth,[9]; [40],16%
same,Mean Optical Densities,[9]; [41],1.165
same,Percent Growth,[9]; [41],82%
same,Mean Optical Densities,[9]; [42],1.211
same,Percent Growth,[9]; [42],88%
same,TGI,[10]; SK-MEL-28 (Melanoma),8.70E−7
same,Mean Optical Densities,[10]; [43],0.114
same,Percent Growth,[10]; [43],−62%
same,Mean Optical Densities,[10]; [44],0.198
same,Percent Growth,[10]; [44],−34%
same,Mean Optical Densities,[10]; [45],0.284
same,Percent Growth,[10]; [45],−6%
same,Mean Optical Densities,[10]; [46],0.733
same,Percent Growth,[10]; [46],85%
same,Mean Optical Densities,[10]; [47],0.816
same,Percent Growth,[10]; [47],102%
same,TGI,[11]; SR (Leukemia),>1.00E−4
same,Mean Optical Densities,[11]; log10 concentration −4.0,0.239
same,Percent Growth,[11]; log10 concentration −4.0,7%
same,Mean Optical Densities,[11]; log10 concentration −5.0,0.244
same,Percent Growth,[11]; log10 concentration −5.0,8%
same,Mean Optical Densities,[11]; log10 concentration −6.0,0.275
same,Percent Growth,[11]; log10 concentration −6.0,16%
same,Mean Optical Densities,[11]; log10 concentration −7.0,0.394
same,Percent Growth,[11]; log10 concentration −7.0,45%
same,Mean Optical Densities,[11]; log10 concentration −8.0,0.548
same,Percent Growth,[11]; log10 concentration −8.0,83%
same,TGI,[12]; SW-620 (Colon Cancer),1.00E−6
same,Mean Optical Densities,[12]; [48],0.101
same,Percent Growth,[12]; [48],−29%
same,Mean Optical Densities,[12]; [49],0.125
same,Percent Growth,[12]; [49],−12%
same,Mean Optical Densities,"[12]; SW-620, log10 concentration −6.0",0.412
same,Mean Optical Densities,[12]; [50],0.782
same,Percent Growth,[12]; [50],92%
same,Mean Optical Densities,[12]; [51],0.839
same,Percent Growth,[12]; [51],100%
same,GI50,[13]; NCI-H460,258 nM
same,CC50,"[13]; NCI-H460, read-out: LC50",> 100000 nM
same,GI50,[14]; KM12,275 nM
same,CC50,"[14]; KM12, read-out: LC50",> 100000 nM
same,TGI,[15]; SN12C (Renal Cancer),>1.00E−4
same,Mean Optical Densities,[15]; log10 concentration −4.0,0.531
same,Percent Growth,[15]; log10 concentration −4.0,11%
same,Mean Optical Densities,[15]; log10 concentration −5.0,0.578
same,Percent Growth,[15]; log10 concentration −5.0,14%
same,Mean Optical Densities,[15]; log10 concentration −6.0,0.620
same,Percent Growth,[15]; log10 concentration −6.0,18%
same,Mean Optical Densities,[15]; log10 concentration −7.0,1.515
same,Percent Growth,[15]; log10 concentration −7.0,84%
same,Mean Optical Densities,[15]; log10 concentration −8.0,1.702
same,Percent Growth,[15]; log10 concentration −8.0,98%
same,TGI,[16]; HL-60(TB) (Leukemia),6.07E−7
same,Mean Optical Densities,[16]; log10 concentration −4.0,0.495
same,Percent Growth,[16]; log10 concentration −4.0,−2%
same,Mean Optical Densities,[16]; log10 concentration −5.0,0.484
same,Percent Growth,[16]; log10 concentration −5.0,−4%
same,Mean Optical Densities,[16]; log10 concentration −6.0,0.407
same,Percent Growth,[16]; log10 concentration −6.0,−19%
same,Mean Optical Densities,[16]; log10 concentration −7.0,0.932
same,Percent Growth,[16]; log10 concentration −7.0,69%
same,Mean Optical Densities,[16]; log10 concentration −8.0,1.084
same,Percent Growth,[16]; log10 concentration −8.0,94%
same,TGI,[17]; MALME-3M (Melanoma),1.09E−6
same,Mean Optical Densities,[17]; log10 concentration −4.0,0.398
same,Percent Growth,[17]; log10 concentration −4.0,−29%
same,Mean Optical Densities,[17]; log10 concentration −5.0,0.458
same,Percent Growth,[17]; log10 concentration −5.0,−19%
same,Mean Optical Densities,[17]; log10 concentration −6.0,0.565
same,Percent Growth,[17]; log10 concentration −6.0,1%
same,Mean Optical Densities,[17]; log10 concentration −7.0,1.008
same,Percent Growth,[17]; log10 concentration −7.0,126%
same,Mean Optical Densities,[17]; log10 concentration −8.0,0.958
same,Percent Growth,[17]; log10 concentration −8.0,112%
